In patent publication US4725683A, “Fluorophenoxyphenoxypropionates and derivatives thereof” (The Dow Chemical Company, priority 1985, dated 1988):

Assays:
Assay in all cases: Preemergent activity
Type in all cases: in vivo
[1] = system: Wild Oats; conditions: Avena fatua, pre-emergence, read-out: Preemergence Control; for pest or weed control at 70 g/ha: 0.07 kgs/hectare; for pest or weed control at 140 g/ha: 0.14 kgs/hectare; for pest or weed control at 280 g/ha: 0.28 kgs/hectare; for pest or weed control at 560 g/ha: 0.56 kgs/hectare; for pest or weed control at 1120 g/ha: 1.12 kgs/hectare
Description: (§1) In a representative operation, 2-[4-(2-fluoro-4-trifluoromethylphenoxy)phenoxy]propionic acid methyl ester, to be utilized in a series of tests, is dissolved in acetone to one half of the final volume (twice the final concentration) to be used and the acetone solution in each case is admixed with an equal volume of water containing 0.1 percent by weight of Tween-20 surface active material (Tween-20 is a trademark of Atlas Chemical Company). The composition, generally in the nature of an emulsion, was employed to treat separate respective seed beds of sandy loam soil of good nutrient content wherein each seed bed contained separate groups of good viable seeds, each group being of one of a known plant species. The various beds were positioned side by side and exposed to substantially identical conditions of temperature and light. Each bed was maintained so as to prevent any interaction with the test compound in different seed beds. Each seed bed was treated with the composition as a spray employing conventional spraying equipment to deposit a predetermined amount of the compound uniformly throughout the surface of the bed. Another seed bed was treated only with the acetone-Tween-20 water mixture with no chemical added to serve as a control.

[2] = system: Yellow Foxtail; conditions: Setaria, pre-emergence, read-out: Preemergence Control; for pest or weed control at 70 g/ha: 0.07 kgs/hectare; for pest or weed control at 140 g/ha: 0.14 kgs/hectare; for pest or weed control at 280 g/ha: 0.28 kgs/hectare; for pest or weed control at 560 g/ha: 0.56 kgs/hectare; for pest or weed control at 1120 g/ha: 1.12 kgs/hectare
Description: as §1

[3] = system: Wheat; conditions: Triticum aestivum, pre-emergence, read-out: Preemergence Control; for plant injury at 70 g/ha: 0.07 kgs/hectare; for plant injury at 140 g/ha: 0.14 kgs/hectare; for plant injury at 280 g/ha: 0.28 kgs/hectare; for plant injury at 560 g/ha: 0.56 kgs/hectare; for plant injury at 1120 g/ha: 1.12 kgs/hectare
Description: as §1

[4] = system: Barnyard Grass; conditions: Echinochloa crus-galli, pre-emergence, read-out: Preemergence Control; for pest or weed control at 70 g/ha: 0.07 kgs/hectare; for pest or weed control at 140 g/ha: 0.14 kgs/hectare; for pest or weed control at 280 g/ha: 0.28 kgs/hectare; for pest or weed control at 560 g/ha: 0.56 kgs/hectare; for pest or weed control at 1120 g/ha: 1.12 kgs/hectare
Description: as §1

[5] = system: Johnson Grass; conditions: Sorghum halepense, pre-emergence, read-out: Preemergence Control; for pest or weed control at 70 g/ha: 0.07 kgs/hectare; for pest or weed control at 140 g/ha: 0.14 kgs/hectare; for pest or weed control at 280 g/ha: 0.28 kgs/hectare; for pest or weed control at 560 g/ha: 0.56 kgs/hectare; for pest or weed control at 1120 g/ha: 1.12 kgs/hectare
Description: as §1

Row | SMILES | pest or weed control at 140 g/ha [1] [%] | pest or weed control at 280 g/ha [1] [%] | pest or weed control at 560 g/ha [1] [%] | pest or weed control at 1120 g/ha [1] [%] | pest or weed control at 140 g/ha [2] [%] | pest or weed control at 280 g/ha [2] [%] | pest or weed control at 560 g/ha [2] [%] | pest or weed control at 1120 g/ha [2] [%] | plant injury at 70 g/ha [3] [%] | plant injury at 140 g/ha [3] [%] | plant injury at 280 g/ha [3] [%] | plant injury at 560 g/ha [3] [%] | plant injury at 1120 g/ha [3] [%] | pest or weed control at 140 g/ha [4] [%] | pest or weed control at 280 g/ha [4] [%] | pest or weed control at 560 g/ha [4] [%] | pest or weed control at 1120 g/ha [4] [%] | pest or weed control at 140 g/ha [5] [%] | pest or weed control at 560 g/ha [5] [%] | pest or weed control at 1120 g/ha [5] [%] | other results
1 | CCOCCOC(=O)C(C)Oc1ccc(Oc2ccc(Br)cc2F)cc1 (stereo not shown) [O(CH2)2 OC2 H5] | 30 | 30 | 100 | 100 | 0 | 80 | 100 | 100 | 0 | 0 | 0 | 0 | 20 | 90 | 95 | 100 | 100 | 0 | 60 | 60 | pest or weed control at 70 g/ha [1]: 0%; pest or weed control at 70 g/ha [2]: 0%; pest or weed control at 70 g/ha [4]: 0%; pest or weed control at 70 g/ha [5]: 0%; pest or weed control at 280 g/ha [5]: 0%
2 | C=CCNC(=O)C(C)Oc1ccc(Oc2ccc(Br)cc2F)cc1 (stereo not shown) | 80 | 90 | 80 | 90 | 0 | 30 | 90 | 100 | 0 | 0 | 0 | 0 | 0 | 0 | 100 | 100 | 100 | 0 | 90 | 100 | pest or weed control at 280 g/ha [5]: 50%
3 | CC(Oc1ccc(Oc2ccc(Br)cc2F)cc1)C(=O)OCCN(C)C (stereo not shown) [O(CH2)2 N(CH3)2] | 30 | 30 | 90 | 99 | 0 | 0 | 100 | 100 | 0 | 0 | 0 | 0 | 0 | 100 | 100 | 100 | 100 | 0 | 95 | 100 | pest or weed control at 70 g/ha [1]: 0%; pest or weed control at 70 g/ha [2]: 0%; pest or weed control at 70 g/ha [4]: 70%; pest or weed control at 70 g/ha [5]: 0%; pest or weed control at 280 g/ha [5]: 60%
4 | COc1cccc(NC(=O)C(C)Oc2ccc(Oc3ccc(Br)cc3F)cc2)c1 (stereo not shown) | 0 | 0 | 40 | 30 | 0 | 20 | 80 | 100 | 0 | 0 | 0 | 0 | 0 | 0 | 100 | 100 | 100 | 0 | 30 | 100 | pest or weed control at 280 g/ha [5]: 30%
5 | CCCCCCCCOC(=O)C(C)Oc1ccc(Oc2ccc(Br)cc2F)cc1 (stereo not shown) [O(CH2)7 CH3] | 0 | 100 | 100 | 100 | 0 | 80 | 90 | 100 | 0 | 0 | 0 | 0 | 90 | 95 | 100 | 100 | 100 | 0 | 100 | 100 | pest or weed control at 70 g/ha [1]: 0%; pest or weed control at 70 g/ha [2]: 0%; pest or weed control at 70 g/ha [4]: 9%; pest or weed control at 70 g/ha [5]: 0%; pest or weed control at 280 g/ha [5]: 100%
6 | CC(Oc1ccc(Oc2ccc(Br)cc2F)cc1)C(=O)O (stereo not shown) [OH, 2-(4-(4-Bromo-2-fluorophenoxy)phenoxy)propionic acid] | 100 | 90 | 95 | 100 | 0 | 90 | 100 | 100 | 0 | 0 | 0 | 0 | 30 | 95 | 100 | 100 | 100 | 60 | 100 | 100 | pest or weed control at 70 g/ha [1]: 0%; pest or weed control at 70 g/ha [2]: 0%; pest or weed control at 70 g/ha [4]: 50%; pest or weed control at 70 g/ha [5]: 0%; pest or weed control at 280 g/ha [5]: 80%
7 | Cc1cc(Cl)ccc1NC(=O)C(C)Oc1ccc(Oc2ccc(Br)cc2F)cc1 (stereo not shown) | 0 | – | 0 | 90 | 0 | – | 70 | 100 | 0 | 0 | 0 | 0 | 40 | 0 | – | 0 | 100 | 0 | 0 | 60 | –
8 | CC(Oc1ccc(Oc2ccc(Br)cc2F)cc1)C(N)=O (stereo not shown) [NH2, 2-(4-(4-Bromo-2-fluorophenoxy)phenoxy)propionamide] | 0 | 50 | 50 | 95 | 90 | 95 | 100 | 100 | 0 | 0 | 30 | 90 | 40 | 100 | 100 | 100 | 100 | 0 | 90 | 100 | pest or weed control at 70 g/ha [1]: 0%; pest or weed control at 70 g/ha [2]: 0%; pest or weed control at 70 g/ha [4]: 20%; pest or weed control at 70 g/ha [5]: 0%; pest or weed control at 280 g/ha [5]: 30%
9 | CC(Oc1ccc(Oc2ccc(Br)cc2F)cc1)C(=O)OC1CCCC1 (stereo not shown) | 0 | 30 | 100 | 100 | 0 | 100 | 100 | 100 | 0 | 0 | 0 | 0 | 80 | 50 | 100 | 100 | 100 | 0 | 100 | 100 | pest or weed control at 280 g/ha [5]: 40%
